Results reported in paper PMC7717570, “Deciphering the enzymatic target of a new family of antischistosomal agents bearing a quinazoline scaffold using complementary computational tools” (Journal of Enzyme Inhibition and Medicinal Chemistry, 2020).
Where “and” joins values, the source holds several entries; their conditions need not be identical. Equal values may be shown once.

Legend:
[1] = test system: Schistosoma mansoni mature worms; test: In vitro S. mansoni worm killing; conditions: Schistosoma mansoni, 120 h, day 5, initial test (Table 2), read-out: Worm killing (% of total)
Method: The percentage reduction of worm or egg burden in each treated group was calculated. […] Results are expressed as mean ± SEM. A two-tailed, unpaired Student’s t-test was used to detect the significance of difference between the means of different groups. […] Stock solutions of 5 mM PZQ and the quinazoline derivatives 2–13 were prepared in DMSO. Concentrations of 100 µM, 50 µM, 25 µM, 10 µM and 5 µM were freshly prepared on the day of experiment in RPMI-1640 medium. All compounds were initially tested at 100 and 50 µM; those showing worm killing were further tested at 25, 10 and 5 µM. Worms were obtained from SBSC of TBRI. Six to eight worms were placed in 12-well tissue culture plates and fresh RPMI-1640 medium (supplemented with glutamine, 20% newborn calf serum and streptomycin, penicillin, and gentamicin), containing the indicated concentration of the test compound was added[20]^,[21]. Worms were incubated overnight in a CO2 incubator at 37 °C. On the 2nd day, worms were examined by microscopy, washed three times with normal saline, fresh medium was added and the incubation was continued. On the 3rd day, worm motility was observed and on the 4th day, medium was changed again. On day 5 (end of the observation period), worms were microscopically examined for their motility and appearance. Each concentration was tested in duplicate, and the final recording of percent worm mortality was determined as the number of dead worms [contracted and opaque] divided by the total number of worms × 100. Negative controls used medium without additions or medium with 2% DMSO; positive control media containing identical concentrations of PZQ were tested in parallel.

[2] = test system: Schistosoma mansoni worm couples; test: S. mansoni ovipositing capacity and coupling; conditions: initial test (Table 2)
Method: Stock solutions of 5 mM PZQ and the quinazoline derivatives 2–13 were prepared in DMSO. Concentrations of 100 µM, 50 µM, 25 µM, 10 µM and 5 µM were freshly prepared on the day of experiment in RPMI-1640 medium. All compounds were initially tested at 100 and 50 µM; those showing worm killing were further tested at 25, 10 and 5 µM. 12-well tissue culture plates were used, each well containing 6–8 worms with at least one worm couple. Worms were incubated overnight in a CO2 incubator at 37 °C. Each concentration was tested in duplicate wells. On day 4, eggs were counted and discarded and the medium was changed. On day 5 (end of observation period) newly deposited eggs were counted. The final egg number is the total count of days 4 and 5 for each concentration tested and the final recording of the percentage of egg reduction was determined as [the total number of eggs on days 4 and 5 of control – the total number of eggs on days 4 and 5 of treated]/the total number of eggs on days 4 and 5 of control × 100.

[3] = Microsomal stability, mouse liver microsomes (S9), Phase-I (CYP450-NADPH); format: in vitro ADME; conditions: CYP450-NADPH, 5 µM
Method: (§1) Mouse or human liver microsomes (S9), reduced nicotinamide adenine dinucleotide phosphate (NADPH) generating system solutions and uridine glucuronosyltransferase (UGT) reaction mix (BD Biosciences) were kept at −80 °C. The test compounds and reference compound diclofenac were formulated in DMSO at […]. The assay was carried out based on the BD Biosciences Guidelines for Use (TF000017 Rev1.0) with minor adaptations. The metabolic stability of the compounds was studied through the CYP450 superfamily (Phase-I metabolism) by fortification with NADPH and through UGT enzymes (Phase-II metabolism) by fortification with uridine diphosphate glucuronic acid (UDPGA). For CYP450 and other NADPH dependent enzymes, the compounds were incubated at 5 µM together with 0.5 mg/mL S9 in potassium phosphate buffer in a reaction started by the addition of 1 mM NADP. At defined time points, 20 µL was withdrawn from the reaction mixture and 80 µL cold acetonitrile (ACN) was added to inactivate the enzymes and precipitate the protein. The mixture was vortexed for 30 s and centrifuged at 4 °C for 5 min to collect the supernatant. For UGT enzymes, the compounds were incubated at 5 µM together with 0.5 mg/mL S9 in a reaction started by the addition of 2 mM UDPGA cofactor. The loss of parent compound was determined using liquid chromatography (UPLC) (Waters Aquity^TM) coupled with tandem quadrupole mass spectrometry (MS^2) (Waters Xevo^TM), equipped with an electrospray ionisation (ESI) interface and operated in multiple reaction monitoring (MRM) mode.

[4] = Microsomal stability, mouse liver microsomes (S9), Phase-II (UGT enzymes); format: in vitro ADME; conditions: UGT enzymes, 5 µM
Method: as §1

[5] = Microsomal stability, human liver microsomes (S9), Phase-I (CYP450-NADPH); format: in vitro ADME; conditions: CYP450-NADPH, 5 µM
Method: as §1

[6] = Microsomal stability, human liver microsomes (S9), Phase-II (UGT enzymes); format: in vitro ADME; conditions: UGT enzymes, 5 µM
Method: as §1

For `COc1ccc(Cn2c(=O)c3cc(OC)c(OC)cc3n(Cc3ccc(C(F)(F)F)cc3)c2=O)cc1` [compound 11, 1-(4-(Trifluoromethyl)benzyl)-6,7-dimethoxy-3-(4-methoxybenzyl)quinazolin-2,4(1H,3H)-dione], the killing at 50 µM ([1]; 50 µM) was 0%, the killing at 100 µM ([1]; 100 µM) was 86% and the Uncoupling ([2]; 50 µM) was “Yes”. For the same compound, the Uncoupling ([2]; 100 µM) was “Yes”, the inhibition at 50 µM ([2]; Schistosoma mansoni, 120 h, 50 µM, read-out: Reduction in number of eggs (%)) was 100% and the inhibition at 100 µM ([2]; Schistosoma mansoni, 120 h, 100 µM, read-out: Reduction in number of eggs (%)) was 100%.

With `O=C(O)Cc1ccccc1Nc1c(Cl)cccc1Cl` [Diclofenac, diclofenac, reference compound] the “% Parent compound remaining upon incubation” value ([3]; 0 min) was 100%, the “% Parent compound remaining upon incubation” value ([3]; 15 min) was 87% and 61% and the “% Parent compound remaining upon incubation” value ([3]; 60 min) was 48% and 27%. For the same compound, the “% Parent compound remaining upon incubation” value ([4]; 0 min) was 100%, the “% Parent compound remaining upon incubation” value ([4]; 15 min) was 41% and 34% and the “% Parent compound remaining upon incubation” value ([4]; 30 min) was 44% and 32%. The “% Parent compound remaining upon incubation” value ([4]; 60 min) was 34% and 30%, the “% Parent compound remaining upon incubation” value ([5]; 0 min) was 100% and the “% Parent compound remaining upon incubation” value ([5]; 15 min) was 27%. For the same compound, the “% Parent compound remaining upon incubation” value ([5]; 30 min) was 5%, the “% Parent compound remaining upon incubation” value ([5]; 60 min) was 1% and the “% Parent compound remaining upon incubation” value ([6]; 0 min) was 100%. The “% Parent compound remaining upon incubation” value ([6]; 15 min) was 11%, the “% Parent compound remaining upon incubation” value ([6]; 30 min) was 9% and the “% Parent compound remaining upon incubation” value ([6]; 60 min) was 9%.
